According to publication PMC10385824, “Antiproliferative and Tubulin-Destabilising Effects of 3-(Prop-1-en-2-yl)azetidin-2-Ones and Related Compounds in MCF-7 and MDA-MB-231 Breast Cancer Cells” (Pharmaceuticals, 2023):
Like-named read-outs stand apart in the source and are kept apart here.

What was measured:
MCF-7 cells [1] = test: Lactate dehydrogenase (LDH) cytotoxicity assay; format: cell-based, human; details: 10 μM, 72 h, LDH release
Protocol: The cytotoxic effects of the compounds were determined using the CytoTox 96 non-radioactive cytotoxicity assay (Promega) as previously reported. The MCF-7 cells were seeded in 96-well plates and incubated for 24 h. Cells were treated with test compounds 16, 26 and 30 at 10 μM concentration as described in the cell viability assay above. At 72 hr, 20 μL of ‘lysis solution (10X)’ was added to the control wells to ensure 100% death. The cells were incubated for a further 1 hr. Supernatant (50 μL) was removed from each well and transferred to a 96-well plate. Cytotox 96R Reagent (50 μL) was added to each well, and the plate was retained in darkness at 20 °C for 30 min. 50 μL of ‘stop solution’ was then added to each well, and the absorbance was determined at 490 nm using a Dynatech MR5000 plate reader. The cell death (%) at 10 μM was determined.

MALME-3M = test: NCI-60 SRB screen, melanoma; format: cell-based, human; details: 48 h; for GI50: Homo sapiens
UACC-257 = test: NCI-60 SRB screen, melanoma; format: cell-based, human; details: for GI50: Homo sapiens
[2] = HPLC stability study in phosphate buffers; format: physicochemical; details: for half-life at 14.6 µg/mL / remaining at 24 h, 14.6 µg/mL / remaining at 264 h, 14.6 µg/mL: phosphate buffer; for half-life at 14.6 µg/mL: read-out: half-life (t½) (converted); for remaining at 24 h, 14.6 µg/mL: study over 24 h; for remaining at 264 h, 14.6 µg/mL: study over 264 h
[3] = HPLC stability study in plasma; format: in vitro ADME, human; details: buffered plasma (plasma:buffer 1:9); for half-life at 41.3 µg/mL: human blood plasma, read-out: half-life (t½); for remaining at 24 h, 41.3 µg/mL: study over 24 h
Protocol: Analytical high-performance liquid chromatography (HPLC) stability studies were performed as follows using Symmetry® column (C18, 5 µm, 4.6 × 150 mm), Waters 2487 Dual Wavelength Absorbance detector, Waters 1525 binary HPLC pump and Waters 717 plus Autosampler (Waters Corporation, Milford, MA, USA) with detection at 254 nm as previously described. Samples were analysed using mobile phase acetonitrile (80%): water (20%), flow rate (1 mL/min) over 10 min. […] First, 30 µL of compound stock solution was diluted with appropriate buffer (1 mL); sample was shaken and injected immediately. Samples were withdrawn and analysed at the following time points: t = 0 min, 5 min, 30 min, 60 min, 90 min, 120 min, 24 h and 48 h. (ii) Thermal stability: Compound stock solution (1 mL) was placed in a glass vial on a heating block for 4 h at 60 °C. The sample was then cooled, diluted (acetonitrile) and analysed. (ii) Oxidising conditions: H2O2 (3%, 0.2 mL) was added to compound stock solution (0.8 mL). The vial was vortexed and retained at 20 °C, and the sample was analysed at 60, 120 180 and 240 min. (iv) Acidic conditions: HCl (0.1 M, 0.2 mL) was added to stock solutions (0.8 mL). The vial was mixed by vortex and retained at 20 °C. A sample was neutralised with NaOH (0.1 M, 0.2 mL) at 60, 120, 180 and 240 min, followed by HPLC analysis. (v) Alkaline conditions: NaOH (0.1 M, 0.2 mL) was added to stock solution (0.8 mL) of the compound in a vial. The vial was mixed by vortex and retained at 20 °C. A sample was neutralised with HCl (0.1 M, 0.2 mL) at 60, 120, 180 and 240 min followed by HPLC analysis. (vi) Photostability study: Compounds (stock solution, 1 mL) were placed in a vial, exposed to UV light for 4 h and then analysed by HPLC as above. Stability studies in plasma: Approval for this study was obtained from the School of Pharmacy and Pharmaceutical Sciences Trinity College Dublin Research Ethics Committee (2020–06-01-MS). Following informed consent, blood was withdrawn from healthy volunteers, and plasma was obtained by centrifugation and kept at −20 °C until further use. […] A sample (250 µL) was then added to the Eppendorf tube containing ZnSO4.7H2O solution (500 µL) (2% w/v ZnSO4 solution in acetonitrile:water, 1:1). The samples were centrifuged (10,000 rpm, 3 min), filtered (0.2 micron filter) and analysed by HPLC as above. Further samples were taken at one-hour intervals.

SF-268 = test: NCI-60 SRB screen, CNS cancer; format: cell-based, human; details: 48 h; for GI50: Homo sapiens, five dose 0.01–100 µM
Protocol: The initial NCI 60 cell line screen used the sulforhodamine B (SRB) protein assay, at one dose concentration (10 μM), and subsequently, a five-dose screening in the concentration range 0.01–100 μM was carried out.

[4] = system: colchicine-binding site of β-tubulin (Cys239, Cys354) in MCF-7 cells; test: Colchicine-binding site assay (EBI crosslinking, Western blot); details: 10 μM, 2 h, then EBI
Protocol: MCF-7 cells were seeded at density of 5 × 10^4 cells/well in 6-well plates and incubated overnight. […] Samples were separated by SDS-PAGE, transferred to polyvinylidene difluoride membranes and examined with β-tubulin antibodies (Sigma-Aldrich, Milwaulkee, WI, USA) [99].
Cells were harvested, lysed and then analysed using sedimentation followed by Western blotting to identify β-tubulin and β-tubulin-EBI adduct.

MCF-7 cells [5] = test: Annexin-V/PI apoptosis assay; details: for cells undergoing apoptosis (early+late): 72 h
Protocol: Flow cytometry using annexin-V and propidium iodide (PI) was used to detect apoptotic cell death in MCF-7 cells. […] Cells were then incubated on ice in darkness for 30 min in annexin-V-containing binding buffer [1:100]. Cells were washed once in binding buffer and then re-suspended in propidium iodide containing binding buffer [1:1000]. Cells were analysed directly using the BD Accuri flow cytometer and Prism software. Four cell populations are produced in this assay: annexin-V- and PI-negative (Q4, healthy cells), annexin-V-positive and PI-negative (Q3, early apoptosis), annexin-V- and PI-positive (Q2, late apoptosis) and annexin-V-negative and PI-positive (Q1, necrosis). CA-4 (50 nM) was used as the positive control for apoptosis.
Cells were then collected and processed for analysis.

[6] = system: microtubule network in MCF-7 cells; test: Immunofluorescence confocal microscopy; format: cell-based, human; details: 16 h
Protocol: CA-4 and β-lactam 9q depolymerise the microtubule network in MCF-7 cells. […] After 16 h, the cells were fixed in 4% paraformaldehyde and stained with mouse monoclonal anti-α-tubulin−FITC antibody (clone DM1A) (green), Alexa Fluor 488 dye, and counterstained with DAPI (blue). The confocal images were obtained by Leica SP8 confocal microscopy with Leica application suite X software. Representative confocal micrograph images of three separate experiments are shown above [scale bar: […]].
The effects of β-lactam 9q on MCF-7 cytoskeleton were determined using confocal microscopy as previously described. MCF-7 cells were seeded at 1 × 10^5 cells/mL in glass slides with eight chambers (BD Biosciences, San Jose, CA, USA). […] Following treatment, cells were gently washed in PBS, fixed for 20 min with 4% paraformaldehyde in PBS and permeabilised in 0.5% Triton X-100. The cells were then washed with PBS-T (PBS containing 0.1% Tween), blocked in 5% bovine serum albumin diluted in PBS-T and incubated with mouse monoclonal anti-α-tubulin-FITC antibody (clone DM1A) (Sigma, Milwaulkee, WI, USA) (1:100) for 2 h at 20 °C. The cells were washed again with PBS-T and incubated with Alexa Fluor 488 dye (1:450) for 1 h at 20 °C. Following washes in PBST, the cells were mounted in Ultra Cruz Mounting Media (Santa Cruz Biotechnology, Santa Cruz, CA, USA), which contained 4,6-diamino-2-phenolindol dihydrochloride (DAPI). The immunofluorescence cell images were captured by Leica SP8 confocal microscopy and analysed with Leica application suite X software. Microscopy experiments were performed on three independent occasions, and the images for these experiments were obtained on the same day using identical conditions.

[7] = MALME-3M, five dose 0.01–100 µM, read-out: GI50
[8] = UACC-257, five dose 0.01–100 µM, 48 h, read-out: GI50
[9] = Homo sapiens, MCF7, 72 h, read-out: Viable

C=C(C)C1C(=O)N(c2cc(OC)c(OC)c(OC)c2)C1c1ccc(OC)cc1 (centres unmarked) [9h, 4-(4-Methoxyphenyl)-1-(3,4,5-trimethoxyphenyl)-3-(prop-1-en-2-yl)azetidin-2-one]
cell death (MCF-7 cells [1]): 30%
GI50 (MALME-3M; [7]): > 100 µM

C=C(C)C1C(=O)N(c2cc(OC)c(OC)c(OC)c2)C1c1ccc(OC)c(OP(=O)(O)O)c1 (centres unmarked) [15a, 2-Methoxy-5-(4-oxo-3-(prop-1-en-2-yl)-1-(3,4,5-trimethoxyphenyl)azetidin-2-yl)-phenyl dihydrogen phosphate]
GI50 (UACC-257; [8]): > 100 µM
half-life at 14.6 µg/mL ([2]; pH 4): > 24 h
half-life at 14.6 µg/mL ([2]; pH 7.4): > 24 h
remaining at 24 h, 14.6 µg/mL ([2]; pH 4.0): 96%
remaining at 24 h, 14.6 µg/mL ([2]; pH 7.4): 98%
half-life at 41.3 µg/mL [3]: > 24 h
remaining at 24 h, 41.3 µg/mL ([3]; human, Plasma): 97%
GI50 (SF-268): 0.0981 µM
GI50 (MALME-3M; [7]): 30.1 µM

C=CCC1C(=O)N(c2cc(OC)c(OC)c(OC)c2)C1c1ccc(OC)c(O)c1 (centres unmarked) [10p, 4-(3-Hydroxy-4-methoxyphenyl)-1-(3,4,5-trimethoxyphenyl)-3-allylazetidin-2-one]
compound remaining ([2]; all pH values (4, 7.4, 9), after 11 days): over 95%
remaining at 264 h, 14.6 µg/mL ([2]; pH 4.0): 98%
remaining at 264 h, 14.6 µg/mL ([2]; pH 7.4): 99%
remaining at 264 h, 14.6 µg/mL ([2]; pH 9.0): 96%
half-life at 14.6 µg/mL ([2]; pH range studied, medium not specified): > 24 h
remaining at 264 h, 41.3 µg/mL ([3]; human, Plasma, study over 264 h): 97%
GI50 (MALME-3M; [7]): 0.0306 µM

C=CC=CC1C(=O)N(c2cc(OC)c(OC)c(OC)c2)C1c1ccc(OC)cc1 (centres unmarked) [11h, 3-(Buta-1,3-dienyl)-4-(4-methoxyphenyl)-1-(3,4,5-trimethoxyphenyl)azetidin-2-one]
GI50 (UACC-257; UACC-257, 48 h): 11.2 µM
GI50 (MALME-3M; Malme-3M): > 100 µM

C=C(C)C1C(=O)N(c2cc(OC)c(OC)c(OC)c2)C1c1ccc(OC)c(O)c1 (centres unmarked) [9q, 4-(3-Hydroxy-4-methoxyphenyl)-1-(3,4,5-trimethoxyphenyl)-3-(prop-1-en-2-yl)azetidin-2-one]
formation of β-tubulin-EBI adduct [4]: formation of the EBI adduct was prevented
% Growth (UACC-257; UACC-257, one dose 10 µM, 48 h): 74.47%
cells undergoing apoptosis (early+late) (MCF-7 cells [5]; 50 nM): 27%
cells undergoing apoptosis (early+late) (MCF-7 cells [5]; 500 nM): 38.9%
viability at 0.05 µM (MCF-7 cells [5]; [9]): 69.2%
viability at 0.5 µM (MCF-7 cells [5]; [9]): 57%
half-life at 14.6 µg/mL ([2]; pH 4): 13 h
half-life at 14.6 µg/mL ([2]; pH 7.4): 13 h
half-life at 14.6 µg/mL ([2]; pH 9): 6 h
remaining at 24 h, 14.6 µg/mL ([2]; pH 4.0): 33%
remaining at 24 h, 14.6 µg/mL ([2]; pH 7.4): 35%
remaining at 24 h, 14.6 µg/mL ([2]; pH 9.0): 34%
half-life at 41.3 µg/mL [3]: > 24 h
remaining at 24 h, 41.3 µg/mL ([3]; human, Plasma): 80%
cell death (MCF-7 cells [1]): 32%
GI50 (SF-268): 0.0229 µM
% Growth (SF-268; one dose 10 µM): 19.27%
GI50 (MALME-3M; [7]): 20.5 µM
% Growth (MALME-3M; MALME-3M, one dose 10 µM): 63.23%
effect on microtubule network [6]: microtubule formation was inhibited and resulted in depolymerised microtubules

C=C(C)C1C(=O)N(c2cc(OC)c(OC)c(OC)c2)C1c1ccc(OC)c(N)c1 (centres unmarked) [9s, 4-(3-Amino-4-methoxyphenyl)-1-(3,4,5-trimethoxyphenyl)-3-(prop-1-en-2-yl)azetidin-2-one]
GI50 (UACC-257; [8]): > 100 µM

COc1ccc(C2C(C(C)C)C(=O)N2c2cc(OC)c(OC)c(OC)c2)cc1OP(=O)(O)O (centres unmarked) [15b, 5-(3-Isopropyl-1-(3,4,5-trimethoxyphenyl)-4-oxoazetidin-2-yl)-2-methoxyphenyl dihydrogen phosphate]
GI50 (UACC-257; [8]): > 100 µM
GI50 (SF-268): 0.447 µM
GI50 (MALME-3M; [7]): > 100 µM
